These are literature values, as cited in US9102697B2, “Trioxacarcins and uses thereof” (President and Fellows of Harvard College, priority 2010, dated 2015).

One data set relates to gram-positive. As to conditions: cited from earlier work.
For another data set, the system named is murine models. The conditions noted are these: cited from earlier work.
In another data set the test system is MCF-7. As to conditions: mammary cancer cell line MCF-7; cited from earlier work.
The test system of a further data set is LXFL 529L. As to conditions: lung cancer cell line LXFL 529L; cited from earlier work.
A further data set deals with H-460. The conditions noted are these: lung cancer cell line H-460; cited from earlier work.
The test system of a further data set is SF-268. As to conditions: CNS cancer cell line SF-268; cited from earlier work.
For data set [1], the system named is self-complementary DNA 12-mer d(AATTACGTAATT) (SEQ ID NO: 1). As to conditions: epoxide opening by N7 of the central guanine residue; cited from earlier work.

For `COc1c2c(c(O)c3c4c(c(C)cc13)C1OC3(C(OC)OC)OC1C(O[C@H]1C[C@@H](O)[C@@](O)(C(C)=O)[C@H](C)O1)(O4)C3(O)CO)C(=O)C(O)CC2O[C@H]1C[C@@](C)(O)[C@H](OC(C)=O)[C@H](C)O1` (some centres unmarked) [Trioxacarcin B], in the data set with gram-positive, the antibiotic activity entry is listed as “gram-positive antibiotic activity”. For the same molecule, in the data set on murine models, the anti-tumor activity entry is given as “anti-tumor activity”.
With `COc1c2c(c(O)c3c4c(c(C)cc13)C1OC3(C(OC)OC)OC1C(OC1CC(O)C(O)(C(C)O)C(C)O1)(O4)C31CO1)C(=O)C(O)CC2OC1COC(C)(OC(C)=O)C(C)(O)C1` (centres unmarked) [Trioxacarcin C], in the data set on gram-positive, the antibiotic activity result was “gram-positive antibiotic activity”. Also, in the data set on murine models, the anti-tumor activity entry is recorded as “anti-tumor activity”.
Take Trioxacarcin A: the IC70 entry in the data set with MCF-7, with LXFL 529L, with H-460 and in the data set with SF-268 was “subnanmolar” throughout. In addition, the antibiotic activity entry in the data set with gram-positive is listed as “gram-positive antibiotic activity”. Moreover, in the data set on murine models, the anti-tumor activity entry is listed as “anti-tumor activity”. Besides, the “reaction with the oligonucleotide” value in data set [1] is listed as “form a covalent complex”.
